The record followed here is PubChem BioAssay (NCI).

Some test systems named below: UACC-257 melanoma; BT-549 breast; MOLT-4 leukemia; IGROV1 ovarian; ACHN renal; SF-539 CNS; OVCAR-3 ovarian; RXF 393 renal; HCT-116 colon; NCI-H522 lung.
Test in all cases: NCI tumour cell line growth inhibition, 48 h

Each structure is given as a SMILES string.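 48-hour exposure; five concentrations; linearly interpolated endpoints. At the TGI there is no net growth.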

`Nc1nc(Cl)cc(NCC2(O)CCCC2)n1`: the TGI with UACC-257 melanoma, with BT-549 breast, in the test with MOLT-4 leukemia, in the test on IGROV1 ovarian, in the test with ACHN renal and with SF-539 CNS was more than 100 µM throughout. For the same compound, the TGI in the test on OVCAR-3 ovarian, with RXF 393 renal, in the test on HCT-116 colon and with NCI-H522 lung was more than 100 µM throughout.
Regarding `C=C1C(=O)O[C@H]2[C@H]3O[C@@H](C[C@@H]12)[C@](C)(O)CC[C@@H]1O[C@@]1(C)CCC[C@H]3C`, the TGI with UACC-257 melanoma is 89.6 µM; in the test with BT-549 breast it was 31.5 µM; in the test on MOLT-4 leukemia, more than 100 µM; in the test with IGROV1 ovarian, 46.2 µM; in the test with ACHN renal, 31.4 µM; in the test with SF-539 CNS it was 53.7 µM. In addition, the TGI in the test with OVCAR-3 ovarian was determined as 46.6 µM; with RXF 393 renal, 26.9 µM; in the test with HCT-116 colon it was 27.8 µM; in the test with NCI-H522 lung, 34.6 µM.
For `NCCC1CN(C(=O)OCc2ccccc2)c2ccccc21` (stereo not given), the TGI in the test on UACC-257 melanoma was 37.8 µM; with BT-549 breast, 40.4 µM; with MOLT-4 leukemia it was 52.1 µM; in the test with IGROV1 ovarian it was 33 µM; in the test on ACHN renal it was more than 54.6 µM; with SF-539 CNS, 14.4 µM. The TGI in the test with OVCAR-3 ovarian turned out to be 45.6 µM; in the test with RXF 393 renal, 32.3 µM; in the test on HCT-116 colon it was 15.6 µM; in the test with NCI-H522 lung, 28.8 µM.
Take `NCCOCC(N)C(=O)O` (stereo not given): the TGI in the test with UACC-257 melanoma, in the test with BT-549 breast, in the test on MOLT-4 leukemia, in the test with IGROV1 ovarian, in the test with ACHN renal and in the test on SF-539 CNS was more than 100 µM in each case. For the same compound, the TGI with OVCAR-3 ovarian, in the test with RXF 393 renal, in the test on HCT-116 colon and with NCI-H522 lung was more than 100 µM in each case.
In the case of `C/C(Nc1ccc(Cl)cc1Cl)=C1/CCOC1=O`, the TGI is more than 100 µM in the test on UACC-257 melanoma; 63.3 µM with BT-549 breast; more than 100 µM in the test on MOLT-4 leukemia; more than 100 µM in the test with IGROV1 ovarian; more than 100 µM in the test on ACHN renal; 89.9 µM in the test with SF-539 CNS. Also, the TGI in the test on OVCAR-3 ovarian is more than 100 µM; in the test on RXF 393 renal it was 39.8 µM; in the test on HCT-116 colon, more than 100 µM; in the test on NCI-H522 lung it was more than 100 µM.
For the compound `NC1=NCC(CN2CCCC2)O1` (stereo not given), the TGI in the test on UACC-257 melanoma, with BT-549 breast, in the test with MOLT-4 leukemia, in the test with IGROV1 ovarian, in the test on ACHN renal and with SF-539 CNS was more than 100 µM each time. The TGI in the test with OVCAR-3 ovarian, with RXF 393 renal, in the test with HCT-116 colon and with NCI-H522 lung was more than 100 µM in each case.
For `COC(=O)C1=C(O)C(C(=O)OC)[C@]2(O)[C@H](C(=O)OC)[C@H]1C[C@@H](c1ccc([N+](=O)[O-])cc1)[C@H]2C(=O)OC` (stereo not given in full), the TGI in the test on UACC-257 melanoma is more than 100 µM; in the test with BT-549 breast, 39.7 µM; in the test with MOLT-4 leukemia, 81.6 µM; in the test with IGROV1 ovarian, 30.5 µM; with ACHN renal, 32.9 µM; in the test with SF-539 CNS it was more than 100 µM. The TGI with OVCAR-3 ovarian is more than 100 µM; in the test on RXF 393 renal it was 32.4 µM; with HCT-116 colon, 32.3 µM; with NCI-H522 lung, 8.58 µM.
As to `NC(=O)Cc1nc2c(=O)[nH]cnc2n1C1OC(CO)C(O)C1O` (stereo not given), the TGI in the test with UACC-257 melanoma, in the test on BT-549 breast, in the test on MOLT-4 leukemia, with IGROV1 ovarian, in the test on ACHN renal and in the test with SF-539 CNS was more than 100 µM in each case. For the same compound, the TGI in the test on OVCAR-3 ovarian, with RXF 393 renal, in the test with HCT-116 colon and with NCI-H522 lung was more than 100 µM throughout.
Turning to `O=c1cc(NCc2ccncc2)[nH]c(=O)[nH]1`, the TGI in the test with UACC-257 melanoma, in the test with BT-549 breast, in the test on MOLT-4 leukemia, in the test with IGROV1 ovarian, with ACHN renal and with SF-539 CNS was more than 100 µM in each case. The TGI in the test with OVCAR-3 ovarian, in the test with RXF 393 renal, in the test on HCT-116 colon and with NCI-H522 lung was more than 100 µM each time.
In the case of `Nc1ncnc2c1ncn2Cc1cccc(CCl)c1`, the TGI in the test on UACC-257 melanoma was 30.4 µM; with BT-549 breast, 25.8 µM; with MOLT-4 leukemia it was more than 100 µM; in the test on IGROV1 ovarian it was 31.8 µM; in the test on ACHN renal it was 37.2 µM; with SF-539 CNS, 33.4 µM. In addition, the TGI worked out at 32.3 µM in the test on OVCAR-3 ovarian, 18.8 µM with RXF 393 renal, 24.6 µM with HCT-116 colon and 32.5 µM with NCI-H522 lung.
Regarding `CC(C)(C)C1CC[C@H](O)[C@H]([C@H](O)CC2CC(=O)N(c3ccccc3)C(=O)C2)C1` (stereo not given in full), the TGI in the test on UACC-257 melanoma, in the test on BT-549 breast, in the test with MOLT-4 leukemia, in the test with IGROV1 ovarian, in the test on ACHN renal and in the test on SF-539 CNS was more than 100 µM in each case. Also, the TGI in the test on OVCAR-3 ovarian, in the test with RXF 393 renal, in the test on HCT-116 colon and in the test on NCI-H522 lung was more than 100 µM in each case.
On to `CCOP(=O)(OCC)/C(C#N)=C/c1cccn1Cc1ccccc1`, for which the TGI is more than 100 µM with UACC-257 melanoma; 74.7 µM with BT-549 breast; 75.5 µM in the test on MOLT-4 leukemia; more than 100 µM in the test on IGROV1 ovarian; more than 100 µM in the test on ACHN renal; 36.1 µM in the test on SF-539 CNS. In addition, the TGI in the test with OVCAR-3 ovarian is more than 100 µM; in the test on RXF 393 renal, more than 100 µM; in the test on HCT-116 colon, 39.7 µM; in the test with NCI-H522 lung, 86.8 µM.
Regarding `CC(C)C1(O)C(=O)N(c2c(F)c(F)c(F)c(F)c2F)C(=S)N1CCSc1ccccc1` (stereo not given), the TGI came out at 32.4 µM with UACC-257 melanoma; 30.4 µM with BT-549 breast; 30.7 µM with MOLT-4 leukemia; 31.2 µM in the test on IGROV1 ovarian; 31.3 µM in the test on ACHN renal; 35.1 µM in the test with SF-539 CNS. Moreover, the TGI with OVCAR-3 ovarian is 30.1 µM; in the test with RXF 393 renal it was 33.1 µM; with HCT-116 colon, 32.1 µM; with NCI-H522 lung, 30.5 µM.
